In patent US20080248511A1, “METHODS TO QUENCH LIGHT FROM OPTICAL REACTIONS” (priority 2007, published 2008):
Like-named read-outs stand apart in the source and are kept apart here.

How the values were obtained:
Type in all cases: biochemical
Renilla luciferase [1] = target: T1, Renilla luciferase (Renilla reniformis, UniProt P27652); experiment: Quaternary ammonium/phosphonium detergent screen, Renilla luciferase (Example 5); details: final conc. 0.10% detergent
T1 sequence (P27652 1-311): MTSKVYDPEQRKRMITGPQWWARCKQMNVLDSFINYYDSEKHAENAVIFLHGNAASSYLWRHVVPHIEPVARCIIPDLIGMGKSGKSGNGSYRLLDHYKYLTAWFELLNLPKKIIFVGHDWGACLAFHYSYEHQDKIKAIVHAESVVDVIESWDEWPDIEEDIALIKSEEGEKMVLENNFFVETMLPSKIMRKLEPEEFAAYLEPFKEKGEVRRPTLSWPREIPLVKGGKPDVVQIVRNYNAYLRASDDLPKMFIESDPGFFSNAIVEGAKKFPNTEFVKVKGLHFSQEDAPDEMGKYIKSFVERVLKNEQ
Method: Each detergent was added at 0.2% to a reagent solution containing 50 mM Tricine pH 8.3, 3.5 mM MgSO4, 1 mM CDTA, 30 mM thiourea and 0.5% Tergitol NP-9. This solution or one not containing a detergent inhibitor was used to resuspend the Bright-Glo™ luciferin substrate (Promega).
The luciferase reactions were initiated by adding 100 μl of the firefly luciferase or Renilla luciferase enzyme solutions to 100 μl of reagent solution. The reactions were performed as described above. […] The detergent concentrations listed refer to the final concentration in the reaction.

Renilla luciferase [2] = target: T1, Renilla luciferase; experiment: biochemical
Renilla luciferase [3] = target: T1, Renilla luciferase; experiment: Detergent titration with Tergitol NP-9, digitonin or no lysing agent, Renilla luciferase (Example 4); details: for remaining activity at 0.0005 % / remaining activity at 0.005 % / remaining activity at 0.05 %: read-out: Relative Renilla Luc Intensity
Method: Renilla luciferase-mediated luminescence was measured from samples containing 9.6 mM phosphate buffer pH 6.8, 2.7 mM KCl, 137 mM NaCl (in PBS), 0.1% gelatin, 75 nM coelentrazine (Promega) and 10.2 ng/ml Renilla luciferase. Reactions contained either no lysing agent, 0.5% Tergitol NP-9 or 20 μg/ml digitonin. The detergents to be tested were titrated to 0.05%, 0.005% or 0.0005% in the reactions prior to the addition of the Renilla luciferase. Renilla luciferase-mediated luminescence was measured as described herein.

CCCCCCCCCCCC[N+](C)(C)Cc1ccccc1.[Br-] [Benzyldimethyldodecylammonium bromide]
Selectivity Value (Renilla luciferase [1]): 48.5
remaining activity at 0.1 % (Renilla luciferase [1]; Tergitol NP-9 present, read-out: Retained Renilla Luciferase Luminescence (%)): 2%
remaining activity at 0.5 % (Renilla luciferase [2]; 0.5% detergent in Renilla Luciferase Assay Reagent, read-out: Retained Renilla Luciferase Luminescence (%)): 0.08%
Selectivity Value (Renilla luciferase [2]; retained firefly / retained Renilla, 0.5% detergent): 259.9
Selective Inhibition (Ff Luc Inh/Ren Luc Inh) (Renilla luciferase [3]; 0.0005% detergent, Dig): 1.8
remaining activity at 0.0005 % (Renilla luciferase [3]; 0.0005% detergent, Dig): 61%
Selective Inhibition (Ff Luc Inh/Ren Luc Inh) (Renilla luciferase [3]; 0.0005% detergent, Terg): 1.1
remaining activity at 0.0005 % (Renilla luciferase [3]; 0.0005% detergent, Terg): 90%
Selective Inhibition (Ff Luc Inh/Ren Luc Inh) (Renilla luciferase [3]; 0.0005% detergent, Water): 2.2
remaining activity at 0.0005 % (Renilla luciferase [3]; 0.0005% detergent, Water): 54%
Selective Inhibition (Ff Luc Inh/Ren Luc Inh) (Renilla luciferase [3]; 0.0050% detergent, Dig): 29
remaining activity at 0.005 % (Renilla luciferase [3]; 0.0050% detergent, Dig): 5%
Selective Inhibition (Ff Luc Inh/Ren Luc Inh) (Renilla luciferase [3]; 0.0050% detergent, Terg): 1.7
remaining activity at 0.005 % (Renilla luciferase [3]; 0.0050% detergent, Terg): 58%
Selective Inhibition (Ff Luc Inh/Ren Luc Inh) (Renilla luciferase [3]; 0.0050% detergent, Water): 36
remaining activity at 0.005 % (Renilla luciferase [3]; 0.0050% detergent, Water): 4%
remaining activity at 0.05 % (Renilla luciferase [3]; 0.0500% (w:v) detergent, Terg (0.5% Tergitol NP-9)): 2%
Selective Inhibition (Ff Luc Inh/Ren Luc Inh) (Renilla luciferase [3]; 0.0500% detergent, Dig): 1575
remaining activity at 0.05 % (Renilla luciferase [3]; 0.0500% detergent, Dig (20 μg/ml digitonin)): 0.02%
Selective Inhibition (Ff Luc Inh/Ren Luc Inh) (Renilla luciferase [3]; 0.0500% detergent, Terg): 21
Selective Inhibition (Ff Luc Inh/Ren Luc Inh) (Renilla luciferase [3]; 0.0500% detergent, Water): 3627
remaining activity at 0.05 % (Renilla luciferase [3]; 0.0500% detergent, Water (no lysing agent)): 0.02%
